The results in this text go back to EP0180416A2, “Benzoic acid analogues and their production” (Takeda Chemical Industries, Ltd., priority 1984, dated 1986).

Molecules are shown by their SMILES. Structures can show the parent of a compound that is named as a salt.

Data set [1] concerns synthetic leukotriene D4 (LTD4). The data set is described as follows: Bronchoconstriction due to LTD4 in guinea pigs (Konzett-Rossler method). It is filed as in vivo, Guinea pigs of Hartley strain. As to conditions: Cavia porcellus, 1 h; 50% inhibitory dose; oral, one hour before LTD4 (10 ug/kg i.v.); inhibition of overflow volume at maximal response; anesthetized guinea pigs; read-out: ID50(p.o.). Here is the method:
Guinea pigs of Hartley strain, both male and female, with body weights about 400 g were assigned to groups of 6 to 10 individuals, and the bronchoconstriction due to LTD4 was measured according to the method of Konzett-Rossler [Konzett, H. and ROssler, R.: Naunyn-Schmiedebergs Archiv far Experimentelle Pathologie und Pharmakologie 195, 71-74 (1940)]. Each guinea pig was fixed in a supine position under urethane anesthesia (1.5 g/kg, intraperitoneal) and the trachea was incised and connected to an artificial respiration apparatus, Rodent Respirator Model 680 [Harvard Apparatus Company, U.S.A.] via a cannula. The branch tube of this tracheal cannula was connected to a Bronchospasm Transducer Model 7020 [Ugobasil Biological Researach Apparatus, Italy]. Under the conditions of 4 to 7 ml of air per stroke, 70 strokes per minute and a lung loading pressure of 10 cm H2O, the volume of overflowing air was recorded on a Rectigraph-8S (Sanei Sokki Ltd., Japan) via a transducer. After administration of gallamine·triethiodide (1 mg/kg, i.v.), a solution of LTD4 in physiological saline (10 ug/kg) was intravenously administered and the bronchoconstriction elicited thereby was recorded for 15 minutes. The compound was used as suspended in a 5% solution of gum arabic or dissolved in water, and administered orally in a volume of 0.2 ml per 100 g body weight one hour before LTD4 loading. LTD4 was administered through a cannula inserted into the jugular vein. LTD4 was used as dissolved in physiological saline, which was taken from a stock stored in methanol (1 mg/l mℓ methanol) at -70°C.

Another data set concerns mice. The data set is described as follows: Acute toxicity in mice. The data set is classed as in vivo, mice of Jcl:ICR strain. The note with it: 2000 mg/kg, male mice; for symptoms after oral administration (acute toxicity): suspended in 5% gum arabic; for autopsy findings: oral, autopsy after 7 days. Here is the method: Five 5-week-old male mice of Jcl:ICR strain, weighing about 30 g each, were used. Compound (I)-2 or (I)-4 was suspended in a 5% solution of gum arabic and administered orally at the level of 0.2 ml per 10 grams body weight.

`CCCc1c(OCCCOc2ccc(C(=O)OCCN(C)C)cc2Br)ccc(C(C)=O)c1O` [(I)-1, 2-(N,N-dimethylamino)ethyl 4-[3-(4-acetyl-3-hydroxy-2-propylphenoxy)propoxy]-3-bromobenzoate·hydrochloride·monohydrate]: the ED50 in data set [1] is 49 µmol/kg.
`CCCc1c(OCCCOc2ccc(C(=O)OCCN3CCOCC3)cc2Br)ccc(C(C)=O)c1O` [(I)-2, 2-morpholinoethyl 4-[3-(4-acetyl-3-hydroxy-2-propylphenoxy)propoxy]-3-bromobenzoate]: the ED50 in data set [1] came to 41 µmol/kg. Also, in the data set on mice, the “symptoms after oral administration (acute toxicity)” value was “no symptoms” and the autopsy findings entry was “did not reveal any abnormalities”.
With `CCCc1c(OCCCOc2ccc(C(=O)OCCN3CCN(C)CC3)cc2Br)ccc(C(C)=O)c1O` [(I)-3, 2-(4-methyl-l-piperazinyl)ethyl 4-[3-(4-acetyl-3-hydroxy-2-propylphenoxy)propoxy]-3-bromobenzoate· dihydrochloride·monohydrate], the ED50 in data set [1] was found to be 49 µmol/kg.
Turning to `CCCc1c(OCCCOc2ccc(C(=O)OCCCN(C)C)cc2Br)ccc(C(C)=O)c1O` [(I)-4, 3-(N,N-dimethylamino)propyl 4-[3-(4-acetyl-3-hydroxy-2-propylphenoxy)propoxy]-3-bromobenzoate], the ED50 in data set [1] was found to be 52 µmol/kg. In the data set on mice, the “symptoms after oral administration (acute toxicity)” value is reported as “no symptoms” and the autopsy findings result is listed as “did not reveal any abnormalities”.
With `CCCc1c(OCCCOc2ccc(C(=O)O)cc2Br)ccc(C(C)=O)c1O` [Control compound (A), 4-[3-(4-acetyl-3-hydroxy-2-propylphenoxy)propoxy]-3-bromobenzoic acid, reference compound], the ED50 in data set [1] is 146 µmol/kg.
